Assay results reported in patent US7863449B2, “Modulators of muscarinic receptors” (Vertex Pharmaceuticals Incorporated, priority 2004, dated 2011).
Counter-ions that a name gives are not always drawn.

Assays:
M4 muscarinic receptor = target: T1, M4 muscarinic receptor (Homo sapiens, UniProt P08173); assay: Functional mobilization of intracellular calcium (FLIPR), M4-CHO cells; type: cell-based; settings: for Emax: 100% efficacy is the maximum response obtained using Carbachol as a control; for M4 Activity: M4-CHO cells, FLIPR calcium mobilization
T1 construct: expressed in transfected cells; host or cells: CHO (M4-CHO)
T1 sequence (P08173 1-479): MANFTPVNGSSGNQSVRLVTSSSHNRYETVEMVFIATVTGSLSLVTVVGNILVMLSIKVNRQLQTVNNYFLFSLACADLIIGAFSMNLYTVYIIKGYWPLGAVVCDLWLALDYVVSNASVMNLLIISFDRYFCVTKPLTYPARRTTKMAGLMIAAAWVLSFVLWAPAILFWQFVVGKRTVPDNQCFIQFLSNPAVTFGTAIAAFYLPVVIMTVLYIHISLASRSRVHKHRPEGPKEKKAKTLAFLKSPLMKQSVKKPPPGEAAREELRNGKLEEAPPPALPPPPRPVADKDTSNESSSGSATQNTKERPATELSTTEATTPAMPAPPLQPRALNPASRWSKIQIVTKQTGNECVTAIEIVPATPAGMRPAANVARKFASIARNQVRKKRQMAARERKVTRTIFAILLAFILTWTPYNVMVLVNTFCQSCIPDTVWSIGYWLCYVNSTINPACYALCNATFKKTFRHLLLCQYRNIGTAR
Protocol: (§1) Functional Mobilization of Intracellular Calcium to Determine Muscarinic Receptor Activity:
(§2) CHO cells expressing muscarinic receptors (M1 to M5) are grown as monolayers in tissue culture flasks at 37° C. in a humidified atmosphere containing 5% CO2 and passaged every 3-5 days. The growth media is Dulbecco's modified eagles medium (DMEM, Gibco Cat# 12430-054), containing 25 mM Hepes and supplemented with Fetal Bovine Serum (Hyclone, cat# SH30071.03), 0.1 mM of MEM non-essential amino acids (GIBCO, Cat# 11140-050), 1 mM MEM Sodium Pyruvate (GIBCO Cat# 11360-070) and 100 units/ml of Penicillin G and 100 μg/ml of Streptomycin (GIBCO Cat# 15140-122). The recombinant muscarinic receptor cell lines are grown under antibiotic pressure with media containing 25 μg/ml zeocin and 500 μg/ml G418 (M1-CHO), 4 μg/ml puromycin, 50 μg/ml zeocin and 2.5 μg/ml blasticidin (M2 and M4-CHO) or 50 μg/ml zeocin and 4 μg/ml puromycin (M3 and M5-CHO).
(§3) Cells are harvested at 80-90% confluence using Versene (GIBCO Cat# 15040-066), collected by centrifugation and seeded 18-24 hrs prior to running the calcium assay at a density of 5,000-10,000 cells/well in […], clear-bottomed 384-well plates (BD Biocoat, poly-D-lysine, Cat#356663). The day of the experiment, the cells are washed with a plate washer (Bioteck Instruments, ELX 405) using bath1 buffer (140-mM NaCl, 4.5-mM KCl, 2-mM CaCl2, 1-mM MgCl2, 10-mM Hepes-Na, 10-mM Glucose, pH 7.4, with NaOH) containing 1 mM Probenecid. Next, the calcium dye Fluo-3 (25 μl/well of Fluo-3 AM at 4 μM, Molecular Probes F-1241, in Bath 1 buffer containing 1 mM Probenecid) is added to the 25 μl of Bath 1 remaining in each well after the plate wash and the dye is loaded at 37° C. in the tissue culture incubator for 60-90 min. The fluorescent dye is removed using the plate washer with Bath 1 containing 1 mM Probenecid, leaving 25 μl/well of this solution after the wash. Alternatively, cells can be loaded with the calcium indicator from Molecular Devices (Calcium 3 Assay Reagents, Cat # R7181) adding 5 μl of a 5× solution dye in Bath 1 containing 1 mM Probenecid (10 ml per dye flask cat# R7182 to generate a solution 20×) to 20 μl of the same buffer. After loading for 60 min, the experiment can be run without having to remove the dye.
(§4) Compounds are prepared at a 2× fold concentration in a 96-well plate (round bottom, Costar Corning cat# 3656), by reconstituting the pre-spotted compounds in bath 1 containing 1 mM probenecid. The final concentration DMSO is 0.5%, and the amount of DMSO is normalized across the assay plate. To determine an agonist action of the compounds on muscarinic receptors, the reconstituted compounds are added (25 μl compound/well) to the cell assay plate (containing 25 μl/well) using the multi-channel robotic system of the FLIPR 3 Instrument (Molecular Devices, Sunnyvale, Calif.). To determine a functional inhibitory action of the compounds on muscarinic receptors, the reconstituted compounds are added (25 μl compound/well) to the assay plate and pre-incubated for 15 min prior to adding 25 μl of Carbachol at 3× the EC80 for each muscarinic subtype. Alternatively, the compounds can be co-applied simultaneously with the agonist. In both assay modes, the fluorescence is recorded for 60 sec (excitation wavelength is […] and emission wavelength 540 nm) using the FLIPR 3 instrument.
(§5) The potency, efficacy and selectivity of the muscarinic compounds were evaluated by screening the compound activity across the whole family (M1 to M5 cells). Compounds were also screened for activity on other proteins such as other GPCRs and ion channels to determine selectivity on M4 receptors.

M1 muscarinic receptor = target: T2, M1 muscarinic receptor (Homo sapiens, UniProt P11229); assay: Functional mobilization of intracellular calcium (FLIPR), M1-CHO cells; type: cell-based; settings: for Emax: 100% efficacy is the maximum response obtained using Carbachol as a control; for M1 Activity: M1-CHO cells, FLIPR calcium mobilization
T2 construct: expressed in transfected cells; host or cells: CHO (M1-CHO)
T2 sequence (P11229 1-460): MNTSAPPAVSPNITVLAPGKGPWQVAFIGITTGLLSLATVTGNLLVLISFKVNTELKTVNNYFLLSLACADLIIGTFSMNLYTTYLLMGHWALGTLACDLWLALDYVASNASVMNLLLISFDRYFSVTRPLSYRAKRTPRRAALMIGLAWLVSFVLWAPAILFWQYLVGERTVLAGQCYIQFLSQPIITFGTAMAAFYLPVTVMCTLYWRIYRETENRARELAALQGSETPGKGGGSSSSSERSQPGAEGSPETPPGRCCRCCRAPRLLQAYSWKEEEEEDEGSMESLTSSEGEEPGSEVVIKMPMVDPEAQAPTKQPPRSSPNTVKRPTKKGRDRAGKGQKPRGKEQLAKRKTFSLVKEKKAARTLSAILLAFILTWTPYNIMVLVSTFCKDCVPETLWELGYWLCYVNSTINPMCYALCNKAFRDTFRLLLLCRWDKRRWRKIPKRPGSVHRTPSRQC
Protocol: as §1, §2, §3, §4, §5

| Compound | Emax (M4 muscarinic receptor) | M4 Activity (M4 muscarinic receptor) | Emax (M1 muscarinic receptor) | M1 Activity (M1 muscarinic receptor) |
| --- | --- | --- | --- | --- |
| CCOC(=O)N1CCC(N2CCC3(CC2)OC(=O)c2cc(Cl)ccc23)CC1 [compound 230] | 25 to 100% | ++ (activity was measured to be from 1.0 μM to 5.0 μM) | 25 to 100% | +++ (activity was measured to be less than 1.0 μM) |
| CCNC(=O)N1Cc2ccccc2C2(CCN(CC3CCN(C(=O)OCC)CC3)CC2)C1 [compound 91] | 25 to 100% | +++ (activity was measured to be less than 1.0 μM) | 25 to 100% | +++ (activity was measured to be less than 1.0 μM) |
| CCOC(=O)N1C2CCC1CC(N1CCC3(CC1)CN(c1cccc(F)c1)Cc1ccccc13)C2 (stereo not shown) [compound 159] | 25 to 100% | +++ (activity was measured to be less than 1.0 μM) | > 100% | +++ (activity was measured to be less than 1.0 μM) |
| CCOC(=O)N1CCC(N2CCC3(CC2)CN(C(=O)C2(C)CCCCC2)Cc2ccccc23)CC1 [compound 178] | < 25% | + (activity was measured to be greater than 5.0 μM) | 25 to 100% | +++ (activity was measured to be less than 1.0 μM) |
| COCCOC(=O)N1C2CCC1CC(N1CCC3(CC1)CN(C(=O)OC)Cc1ccccc13)C2 (stereo not shown) [compound 183] | 25 to 100% | +++ (activity was measured to be less than 1.0 μM) | 25 to 100% | +++ (activity was measured to be less than 1.0 μM) |
| CCOC(=O)N1CCC(N2CCC3(CC2)CN(C(=O)C2CCC2)Cc2ccccc23)CC1 [compound 250] | 25 to 100% | +++ (activity was measured to be less than 1.0 μM) | 25 to 100% | +++ (activity was measured to be less than 1.0 μM) |
| CCOC(=O)N1CCC(N2CCC3(CC2)CN(C(=O)OC2CCCC2)Cc2ccccc23)CC1 [compound 164] | 25 to 100% | +++ (activity was measured to be less than 1.0 μM) | 25 to 100% | +++ (activity was measured to be less than 1.0 μM) |
| CC(=O)N1Cc2ccccc2C2(CCN(Cc3ccccc3Cl)CC2)C1 [compound 152] | 25 to 100% | ++ (activity was measured to be from 1.0 μM to 5.0 μM) | < 25% | + (activity was measured to be greater than 5.0 μM) |
| CC(=O)N1Cc2ccccc2C2(CCN(CC3CCN(C(=O)O[C@@H]4CCOC4)CC3)CC2)C1 [compound 45] | < 25% | + (activity was measured to be greater than 5.0 μM) | < 25% | + (activity was measured to be greater than 5.0 μM) |
| CCOC(=O)N1CCC(C)(CN2CCC3(CC2)CN(C(C)=O)Cc2ccccc23)CC1 [compound 103, ethyl 4-((2-acetyl-2,3-dihydro-1H-spiro[isoquinoline-4,4′-piperidine]-1′-yl)methyl)-4-methylpiperidine-1-carboxylate hydrochloride] | 25 to 100% | +++ (activity was measured to be less than 1.0 μM) | 25 to 100% | +++ (activity was measured to be less than 1.0 μM) |
| CCOC(=O)N1CCC(CN2CCC3(CC2)CN(C(=O)N(C)C)Cc2ccccc23)CC1 [compound 288] | 25 to 100% | +++ (activity was measured to be less than 1.0 μM) | 25 to 100% | +++ (activity was measured to be less than 1.0 μM) |
| CCC(=O)Oc1ccc(CN2CCC3(CC2)CN(C(C)=O)Cc2ccccc23)cc1 [compound 59] | < 25% | + (activity was measured to be greater than 5.0 μM) | < 25% | + (activity was measured to be greater than 5.0 μM) |
| CCOC(=O)N1CCC(CN2CCC3(CC2)CN(C(=O)C(C)C)Cc2ccccc23)CC1 [compound 270] | 25 to 100% | +++ (activity was measured to be less than 1.0 μM) | 25 to 100% | +++ (activity was measured to be less than 1.0 μM) |
| CCOC(=O)N1C2CCC1CC(N1CCC3(CC1)CN(c1cccc(OC)c1)Cc1ccccc13)C2 (stereo not shown) [compound 141, ethyl 3-(2-(3-methoxyphenyl)-2,3-dihydro-1H-spiro[isoquinoline-4,4′-piperidine]-1′-yl)-8-azabicyclo[3.2.1]octane-8-carboxylate] | 25 to 100% | +++ (activity was measured to be less than 1.0 μM) | 25 to 100% | +++ (activity was measured to be less than 1.0 μM) |
| CCOC(=O)N1C2CCC1CC(N1CCC3(CC1)CN(C(=O)OCCOC)Cc1ccccc13)C2 (stereo not shown) [compound 73] | 25 to 100% | +++ (activity was measured to be less than 1.0 μM) | 25 to 100% | +++ (activity was measured to be less than 1.0 μM) |
| CCOC(=O)N1CCC(CN2CCC3(CC2)CN(S(=O)(=O)N(C)C)Cc2ccccc23)CC1 [compound 356] | 25 to 100% | +++ (activity was measured to be less than 1.0 μM) | 25 to 100% | +++ (activity was measured to be less than 1.0 μM) |
| CC(=O)N1Cc2ccccc2C2(CCN(Cc3ccncc3)CC2)C1 [compound 5] | < 25% | + (activity was measured to be greater than 5.0 μM) | < 25% | + (activity was measured to be greater than 5.0 μM) |
| CCOC(=O)N1CCC(CN2CCC3(CC2)CN(C(=O)Oc2ccc(F)cc2)Cc2ccccc23)CC1 [compound 72] | 25 to 100% | +++ (activity was measured to be less than 1.0 μM) | 25 to 100% | +++ (activity was measured to be less than 1.0 μM) |
| COCCN1CCC2(CC1)CN(C(C)=O)Cc1ccccc12 [compound 89] | < 25% | + (activity was measured to be greater than 5.0 μM) | < 25% | + (activity was measured to be greater than 5.0 μM) |
